According to patent US20240124503A1, “HETEROAROMATIC PHOSPHONIUM SALTS AND THEIR USE TREATING CANCER” (FLORATEK PHARMA S.A., priority 2021, published 2024):

Columns and labels:
Assay type in all cases: cell-based
colon cancer cell = assay: Cell viability, colon cancer cells (panel statement); details: summary of Table 6; read-out: IC50, colon cancer cell growth
Method: (§1) Antitumor activity of the compounds and doxorubicin as a positive control was assessed by using the CellTiter-Blue Cell Viability Assay (Promega, #G8082) or CellTiter-Glow® Luminescent Cell Viability assay (Promega #G7572) according to the manufacturer's instructions. The compounds were tested at 5 or 6 concentrations in half-log increments (highest concentration 30 μM or 100 μM) in duplicate or triplicate well conditions.
(§2) Tumor cells were grown at 37° C. in a humidified atmosphere with 5% CO2 in RPMI 1640 or DMEM medium, supplemented with 10% (v/v) fetal calf serum and 50 μg/ml gentamicin for up to 20 passages, and were passaged once or twice weekly. Cells were harvested using TrypLE or PBS buffer containing 1 mM EDTA, and the percentage of viable cells was determined using a CASY Model TI cell counter (OMNI Life Science). Cells were harvested from exponential phase cultures, counted and plated in 96 well flat-bottom microtiter plates at a cell density depending on the cell line's growth rate (4,000-20,000 cells/well depending on the cell line's growth rate, up to 60,000 for hematological cancer cell lines) in RPMI 1640 or DMEM medium supplemented with 10% (v/v) fetal calf serum and 50 μg/ml gentamicin (140 μl/well). […] Viability of cells was quantified by the CellTiter-Blue® cell viability assay (Promega G8081) or CellTiter-Glow® Luminescent Cell Viability assay (Promega #G7572). […]

lung carcinoma cell = assay: Cell viability, lung carcinoma cells (panel statement); details: summary of Table 13; read-out: IC50, lung carcinoma cell growth
Method: as §1, §2

Mia-Pa-Ca-2 = assay: Cell viability assay, Mia-Pa-Ca-2; details: Homo sapiens, MIA PaCa-2; pancreatic carcinoma cell line Mia-Pa-Ca-2
Method: as §1, §2

colon PDX = assay: Cell viability, colon PDX (panel statement); details: text summary of Table 7; read-out: IC50, growth of colon PDX
Method: (§3) PDX-derived cell cultures were obtained from tumors explanted from mice and isolated by mechanical and enzymatic dissociation. […] Cells were harvested and seeded in 96-wells plates at a density of 1.25 to 5×10^3 cells/well for cytotoxicity assays. Cells were incubated 48 h at 37° C. prior to addition of test molecules and vehicle (DMSO, 0.1%) at desired final concentrations. Cell viability was assessed before drugs' addition (To) and 5 days after test molecules addition by measuring ATP cell content using CellTiter-Glo® Luminescent Cell Viability Assay (Promega) according to the manufacturer's instructions. Luciferase activity was measured on a luminometer (PerkinElmer® EnVision™). Each concentration of compounds was tested in triplicate.
(§4) Viability was calculated as a percentage of ATP value compared to vehicle treated controls.
(§5) For PDX primary cell cultures, the tumour tissue was washed with PBS containing antibiotic-antimycotic and non-tumour tissue and necrotic tumour tissues were separated. The tumour tissue was transferred to a new dish and cut into 1˜2 mm^3 fragments, resuspended in RPMI-1640 medium and centrifuged at 1,200 rpm for 6 min at room temperature. The pelleted material was resuspended with 15 mL of Tumour Cell Digestion Solution and incubated at 37° C. for 1 hour with agitation. […]

HCC1806 = assay: Cell viability assay, HCC1806; details: Homo sapiens; breast carcinoma cell line HCC1806
Method: as §1, §2

lung PDX = assay: Cell viability, lung PDX (panel statement); details: text summary of Table 15; read-out: IC50, lung PDX growth
Method: as §3, §4, §5

MDA-MB-436 = assay: Cell viability assay, MDA-MB-436; details: Homo sapiens; breast carcinoma cell line MDA-MB-436
Method: as §1, §2

ZR-75-1 = assay: Cell viability assay, ZR-75-1; details: Homo sapiens; breast carcinoma cell line ZR-75-1
Method: as §1, §2

breast cancer cell = assay: Cell viability, breast cancer cells (panel statement); details: text summary of Tables 4A & 4B; read-out: IC50, breast cancer cell growth
Method: as §1, §2

CALU-6 = assay: Cell viability assay, CALU-6; details: Homo sapiens; lung carcinoma cell line CALU-6
Method: as §1, §2

SK-N-AS = assay: Cell viability assay, SK-N-AS; details: Homo sapiens; brain carcinoma cell line SK-N-AS
Method: as §1, §2

IC50 (colon cancer cell): < 20000 nM
IC50 (lung carcinoma cell): < 20000 nM
IC50 (Mia-Pa-Ca-2): 330 nM
IC50 (HCC1806): 2800 nM
IC50 (MDA-MB-436): 2900 nM
IC50 (breast cancer cell): < 5000 nM
IC50 (CALU-6): 2390 nM
IC50 (SK-N-AS): 3000 nM
SMILES: COc1c(O)ccc2c(=O)c(O)c(-c3ccc(CCCC[P+](c4ccccc4)(c4ccccc4)c4ccccc4)cc3)oc12 [SND190, (4-(4-(3,7-Dihydroxy-8-methoxy-4-oxo-4H1-chromen-2-yl)phenyl)butyl)triphenylphosphonium bromide]
IC50 (colon PDX): < 20000 nM
IC50 (lung PDX): < 20000 nM
IC50 (ZR-75-1): 3500 nM
